Measurements as given in patent US7192932B1, “Use of immunomodulating agents” (Lauras AS, priority 1997, dated 2007).
Where “and” joins values, the source holds several entries; their conditions need not be identical. Equal entries are not always repeated. Marks after values point to notes of the source that are not given here.

Columns and labels:
[1] = system: peripheral blood CD3+ T cells; experiment: TCR/CD3 stimulated proliferation of liposome-transfected CD3+ T cells treated with 8-CPT-cAMP; assay type: cell-based, human; details: for IC50: FIG. 10
Method: FIG. 8. Reversal of cAMP-mediated inhibition of TUR/CD3 stimulated T cell proliferation by the use of ribozyme to the RIα subunit of protein kinase A type I. TCR/CD3 stimulated proliferation of peripheral blood CD3+ T cells from normal healthy blood donor following treatment with liposomes alone (mock) or with liposomes and RIα ribozyme (RIα rbz, 10 μM) in the absence (solid bars) and presence (open bars) of 8-CPT-cAMP (12,5 μM).
FIG. 9. Reversal of cAMP-mediated inhibition of TCR/CD3 stimulated T cell proliferation by the use of competitor peptide to compete the TCR/CD3 associated anchoring of RIα subunit of protein kinase A type I in T cells. TCR/CD3 stimulated proliferation of peripheral blood CD3+ T cells from normal healthy blood donor following treatment with liposomes alone (mock) or with increasing concentrations (25 to 100 μM) of a competitor peptide (Ht-31) that competes anchoring, to PKA type II or a control peptide (Ht31-P).
FIG. 10. TCR/CD3 stimulated proliferation of peripheral blood CD3+ T cells in the presence of increasing, concentrations of 8-CPT-cAMP. Normalized levels of proliferation of T cells mock transfected with liposomes only (solid circles, continuous line) or incubated with liposomes and Ht31 peptide (35 μM) to compete anchoring of protein kinase A type I (open circles, dotted line) was assessed as [^3H]-thymidine incorporation after 48 h during which [^3H]-thymidine was added for the last 18 h. Note: right shift of the IC50 (arrow) from 1,8 to 4,8 μM in the presence of […].
When transfected as synthetic RNA ribozyme or as a synthetic RNA ribozyme stabilized by incorporation of 2-deoxycytosine and 2-deoxy-uracil analogs into peripheral blood CD3+ T cells, the ribozyme reduced levels of RIα protein to approximately 20% of control levels by removing the RIα mRNA. By this strategy, the majority of protein kinase A type 1 was removed from the T cells. We then assessed the immune responsiveness of CD3+ T cells transfected with ribozyme compared to control (mock) transfected T cells measured as T cell proliferation after activation of T cells by stimulation of the T cell receptor/CD3 complex (TCR/CD3). In order to simulate a T cell dysfunction as that of HIV infection, with elevated levels of cAMP and increased activation of protein kinase A type 1, we treated normal T cells with low dose (12.5 around IC50) of the cAMP analog 8-(4-chlorophenyl)-thio-cAMPS (8-CPT-cAMP). […] For in vivo use pretreatment of ribozymes to allow cellular uptake or introduction into cells as minigenes will be necessary.
We incubated blood CD3+ T cells with increasing concentrations of Ht31 (SEQ. ID. NO 2) peptide. In order to facilitate uptake, cells were treated with liposomes in the presence or absence of-peptide. The optimal concentrations of DOTAP liposomes and anti-CD3 antibody were titrated carefully in order to maintain the membrane stability and normal TCR/CD3-dependent activation of the T cells. Cells were incubated for 20 hours with DOTAP/peptide and incubations continued in the absence (solid bars) or presence of 8-CPT-cAMP (6.25 μM, hatched bars) and activated to proliferation by stimulation of TCR/CD3 T cell immune responsiveness was assessed as [3H]thymidine incorporation.
Next, the effect of the competitor peptide (Ht-31, 35 μM) on T cell proliferation was examined in the presence of increasing concentrations of 8-CPT-cAMP and compared to mock transfected cells treated with the same concentrations of 8-CPT-cAMP (FIG. 10). As shown previously for normal peripheral blood T cells. […] Compared to the left-shifted curves observed with T cells from HIV-infected patients or patients with CIV due to elevated levels of endogenous cAMP activating PKA type 1, the right-shift observed here would be expected to normalize the situation in patients.

[2] = system: peripheral blood CD3+ T cells; experiment: TCR/CD3 (anti-CD3) stimulated T cell proliferation, [3H]-thymidine incorporation; assay type: cell-based, human
Method: (§1) Human peripheral blood CD3+ T cells were purified by negative selection from 50 ml of heparin-treated blood from normal healthy donors (Ullevaal University Hospital Blood Center, Oslo. Norway) or patients. Briefly, peripheral blood mononuclear cells were isolated by density gradient (Lymphoprep, NycoMed, Oslo, Norway) centrifugation followed by negative selection using monodisperse magnetic beads directly coated with antibodies to CD14 and CD19 and rat anti-mouse IgG beads coated with antibodies to CD56 and a magnet. Magnetic beads were all from Dynal (Oslo, Norway, cat. no. 111.12, 111.04, and 110.11. respectively) whereas anti-CD56 antibody was from Pharmingen (San Diego, Calif., cat. no. 31660.d). All steps were performed at 4° C.
as §1, with “Peripheral blood” for “Human peripheral blood”, “Center, Oslo,” for “Center, Oslo.”, “selection using,” for “selection using”, “and 110.11,” for “and 110.11.”, “Calif., eat.” for “Calif., cat.”
Proliferation assays were performed by incubation of 0.75×10^6 CM+ T cells/ml in a 100 μl volume in that-bottom 96-well microtiter plates. Activation was achieved by subsequent addition of monodisperse magnetic beads coated with sheep anti-mouse IgG (Dynal. cat. no. 110.02) at a cell:bead ratio of 1:1 followed by addition of antiCD3 (clone SpvT3b) at a final dilution of 1:125,000 for the experiments shown. The optimal concentration of antibody was titrated carefully in the initial setup and parallel experiments at several different dilutions of antibody was always performed. Proliferation was analyzed by incubating, cells for 72 hours during which [^3H]thymidine was included for the last 16 hours. Cells were washed and harvested onto filters using a Scatron harvester (Suffolk, UK) and subsequently analyzed by β-scintillation counting. cAMP analogs, when used, were added 30 min prior to activation by addition of […] antibodies. 8-CPT-cAMP was from Sigorna (St. Louis, Mo.) and Sp- and Rp-8-Br-cAMPS were from BioLog Life Science Company (Bremen, Germany) and were all dissolved to concentrations of 4 to 10 mM in PBS and concentrations calculated using the extinction coefficients given by the manufacturer.

`Nc1ncnc2c1nc(Sc1ccc(Cl)cc1)n2[C@@H]1O[C@@H]2COP(=O)(O)O[C@H]2[C@H]1O` [8-CPT-cAMP, 8-(4-chlorophenylthio)cAMP, reference compound] was tested. Which “T cell proliferation in presence of cAMP analog” value ([1]; mock transfected normal T cells, 8-CPT-cAMP 12.5 μM, FIG. 8) did it give?
Its value is “approximately 20 % of control”.

And the IC50 ([1]; normal T cells incubated with liposomes and Ht31 peptide (35 μM), read-out: apparent IC50, inhibition of TCR/CD3 stimulated proliferation)?
Its IC50 is 4.8 µM.

What about the IC50 ([1]; normal T cells mock transfected with liposomes only, read-out: IC50, inhibition of TCR/CD3 stimulated proliferation) of the same molecule?
The IC50 was ~1.8 µM and 1.8 µM.

What about the “Hill coefficient of cAMP-inhibition curve” value ([2]; T cells from HIV seropositive individuals, n=18) of the same molecule?
The value was 1.19 (1.13–1.40).

And the “Inhibition of proliferation by 8-CPT-cAMP Hill coefficient” value ([2]; T cells from HIV+ asymptomatic patients, n = 8, median (25 to 75% range))?
The value was 1.18(1.09–1.36)^b.

And the IC50 ([2]; T cells from HIV+ asymptomatic patients, n = 8, median (25 to 75% range), read-out: Inhibition of proliferation by 8-CPT-cAMP IC50)?
The IC50 was 2.26 µM.

What about the “Inhibition of proliferation by 8-CPT-cAMP Hill coefficient” value ([2]; T cells from HIV+ symptomatic patients, n = 10, median (25 to 75% range)) of the same molecule?
The value was 1.19(1.13–1.40)^o.

And the IC50 ([2]; T cells from HIV+ symptomatic patients, n = 10, median (25 to 75% range), read-out: Inhibition of proliferation by 8-CPT-cAMP IC50)?
The IC50 was 1.87 µM.

And the IC50 ([2]; T cells from a healthy blood donor, FIG. 1B, read-out: IC50, inhibition of TCR/CD3 stimulated proliferation)?
The IC50 was 6.11 µM.

What about the IC50 ([2]; T cells from a representative HIV-infected patient (#10 in Table 2a), FIG. 1B, read-out: IC50, inhibition of TCR/CD3 stimulated proliferation) of the same molecule?
Its IC50 is 1.78 µM.

And the “Inhibition of proliferation by 8-CPT-cAMP Hill coefficient” value ([2]; T cells from normal controls, n = 8, median (25 to 75% range))?
The value was 1.59(1.40–1.81).

What about the IC50 ([2]; T cells from normal controls, n = 8, median (25 to 75% range), read-out: Inhibition of proliferation by 8-CPT-cAMP IC50) of the same molecule?
The IC50 was 4.59 µM.

What about the “Inhibition of proliferation by 8-CPT-cAMP Hill coefficient” value ([2]; T cells from patients on triple combination therapy, n = 9, median (25 to 75% range)) of the same molecule?
The value was 1.35(1.33–1.68).

What about the IC50 ([2]; T cells from patients on triple combination therapy, n = 9, median (25 to 75% range), read-out: Inhibition of proliferation by 8-CPT-cAMP IC50) of the same molecule?
Its IC50 is 2.59 µM.

What about the “Inhibition of proliferation by 8-CPT-cAMP (−Hill coefficient)” value (shortened to “Inhibition … (−Hill coefficient)”) ([2]; T cells of individual CVI patients #1-#7) of the same molecule?
Its value is 1.34 and 1.38 and 2.03 and 1.39 and 1.46 and 1.47 and 1.26.

What about the IC50 ([2]; T cells of individual CVI patients #1-#7, read-out: Inhibition of proliferation by 8-CPT-cAMP (IC50)) of the same molecule?
The IC50 was 3.68 µM and 3.36 µM and 3.16 µM and 2.66 µM and 2.34 µM and 2.98 µM and 2.26 µM.

And the “Inhibition … (−Hill coefficient)” value ([2]; median in 7 CVI patients)?
Its value is 1.39^§.

And the IC50 ([2]; median in 7 CVI patients, read-out: Inhibition of proliferation by 8-CPT-cAMP (IC50))?
Its IC50 is 2.98 µM.

And the “Inhibition … (−Hill coefficient)” value ([2]; median in 8 healthy controls)?
Its value is 1.59.

What about the IC50 ([2]; median in 8 healthy controls, read-out: Inhibition of proliferation by 8-CPT-cAMP (IC50)) of the same molecule?
Its IC50 is 4.59 µM.

And the IC50 ([2]; one healthy control, FIG. 4B, read-out: IC50, inhibition of anti-CD3 stimulated T lymphocyte proliferation)?
Its IC50 is 4.66 µM.

What about the IC50 ([2]; one representative CVI patient, FIG. 4B, read-out: IC50, inhibition of anti-CD3 stimulated T lymphocyte proliferation) of the same molecule?
Its IC50 is 2.26 µM.
